Measured values as given in patent publication US5843449A, “Proteins and novel peptides derived from autoantigen for use in immunotherapy of autoimmune diseases” (Akzo Nobel N.V., priority 1996, dated 1998).
Like-named read-outs stand apart in the source and are kept apart here. Residues, ends and D or L forms follow the SMILES beside them.

Experiments:
[1] = molecular target: DR4Dw14 HLA-DR molecules; assay: HLA-DR peptide binding assay (competition with biotinylated marker peptide), DR4Dw14; design: species or system human; conditions: pH = 5, 50 nM biotin-spacer-IHA(307-319)F marker peptide
[2] = molecular target: T1, DR4Dw4 (DRB1*0401) HLA-DR molecules (Homo sapiens, UniProt P01903+P01911, A100K/A169T/F76Y/I96L/K127E/L162R/M171V/N62H/P40V/Q125Y/R42H/S133A/S149N/S66Y/V115G/V209L/W38E); assay: HLA-DR peptide binding assay (competition with biotinylated marker peptide), DR4Dw4; conditions: pH = 5, 50 nM biotin-spacer-IHA(307-319)F marker peptide
T1 construct: endogenous in cells; host or cells: BSM, EBV-transformed B-cell line

Compound `CC(C)C[C@H](NC(=O)[C@H](CCCCN)NC(=O)[C@H](CC(C)C)NC(=O)[C@@H](NC(=O)[C@H](CC(N)=O)NC(=O)[C@H](CCC(N)=O)NC(=O)[C@H](CCCCN)NC(=O)[C@@H](NC(=O)[C@H](Cc1ccccc1)NC(=O)[C@H](CCCCN)NC(=O)[C@@H]1CCCN1)C(C)C)[C@@H](C)O)C(=O)N[C@@H](C)C(=O)N[C@H](C(=O)O)[C@@H](C)O` [IHA(307-319)F, reference compound] (H-PKFVKQNTLKLAT-OH) has an IC50 ([1]; DOT Blot, densitometer, read-out: ^R IC50, DR4Dw14, DOT Blot) of 0.53 µM, an IC50 ([1]; SDS-PAGE, visual inspection, read-out: ^R IC50, DR4Dw14, SDS-PAGE) of 0.3 µM and an IC50 ([2]; DOT Blot, densitometer, read-out: ^R IC50, DR4Dw4, DOT Blot) of 0.55 µM. For the same compound, the IC50 ([2]; SDS-PAGE, visual inspection, read-out: ^R IC50, DR4Dw4, SDS-PAGE) was 0.3 µM.
